This is an account of results in patent US20260000689A1, “TARGETING CREB-HEPARAN SULFATE-FGF PATHWAY FOR CANCER TREATMENT” (UNIVERSITY OF SOUTH FLORIDA, priority 2022, published 2026).

In assay [1] the test system is Myc-CaP cells. Briefly: Colony formation of EXT1-overexpressing vs EV MyC-CaP cells with FGFR inhibitor. As to conditions: 1, 5, 10 μm AZD4547 vs DMSO. The assay is classed as cell-based, mice.
Assay [2] deals with Myc-CaP cells with EXT1-overexpression. Briefly: s.c. xenograft prostate cancer mouse model, EXT1-overexpressing Myc-CaP cells. The format is in vivo, FVB/NJ mice. The source says: (§1) FIG. 7A-FIG. 7F show inhibition of CREB or HS attenuates prostate cancer growth. […] 7A) and HS (FIG. 7B) in Myc-CaP cells, and the in vitro cell growth (FIG. 7C) and migration (FIG. 7D).
(§2) FIG. 22E and FIG. 22F show myc-Cap cells in vivo for KG-501 (FIG. 22E) and Surfen (FIG. 22F). FIG. 22G and FIG. 22H show Ext1-overexpressing myc-Cap cells in vivo for KG-501 (FIG. 22G) and Surfen (FIG. 22H).

Assay [3] has as its system Myc-CaP cells. Briefly: s.c. xenograft prostate cancer mouse model, Myc-CaP cells. To be noted: without EXT1-overexpression. The assay is classed as in vivo, FVB/NJ mice.
Text: as §1, §2

Another assay deals with HS. As to the kind of experiment: Expression of HS (heparan sulfate staining) in Myc-CaP cells. The format is cell-based, mice.
Text: as §1, §2

The next assay has as its system EXT1 mRNA. Briefly: Expression of EXT1 mRNA in Myc-CaP cells. The assay is classed as cell-based, mice.
Text: as §1, §2

Assay [4] relates to Myc-CaP cells. Briefly: Cell migration of Myc-CaP cells. The assay is classed as cell-based, mice.
Text: as §1, §2

The test system of assay [5] is Myc-CaP cells. Briefly: In vitro cell growth of Myc-CaP cells. The format is cell-based, mice.
Text: as §1, §2

“Also recorded” adds a separate entry of the source.

Regarding `COc1cc(CCc2cc(NC(=O)c3ccc(N4C[C@@H](C)N[C@@H](C)C4)cc3)n[nH]2)cc(OC)c1` [AZD4547], the “resistance of EXT1-overexpressing cells to FGFR inhibitor in colony formation” value in the assay with Myc-CaP cells [1] is reported as “more resistant”. In addition, the “growth of EXT1-overexpressing Myc-CaP cells in s.c. xenograft prostate cancer mouse model” value in assay [2] was “blocks EXT1-overexpression-enhanced prostate cancer growth in vivo”.
For the compound `O=C(Nc1ccc(Cl)cc1)c1cc2ccccc2cc1OP(=O)(O)O` [KG-501, 2-naphthol-AS-E-phosphate], the “growth of Myc-CaP cells in s.c. xenograft prostate cancer mouse model” value in the assay on Myc-CaP cells [3] is “efficiently inhibited; also recorded: attenuated prostate cancer growth in vivo”. For the same compound, in the assay with HS, the “expression of HS” value is “does-dependently inhibited”. For the same compound, the “expression of EXT1 mRNA” value in the assay with EXT1 mRNA is listed as “does-dependently inhibited”. The migration entry in the assay on Myc-CaP cells [4] was “does-dependently inhibited”. The “in vitro cell growth” value in the assay with Myc-CaP cells [5] is listed as “does-dependently inhibited”. Further, in assay [2], the “growth of EXT1-overexpressing Myc-CaP cells in s.c. xenograft prostate cancer mouse model” value is reported as “efficiently inhibited; also recorded: attenuated prostate cancer growth in vivo”.
For `Cc1cc(N)c2cc(NC(=O)Nc3ccc4nc(C)cc(N)c4c3)ccc2n1` [Surfen, bis-2-methyl-4-amino-quinolyl-6-carbamide], the “growth of Myc-CaP cells in s.c. xenograft prostate cancer mouse model” value is “efficiently inhibited; also recorded: attenuated prostate cancer growth in vivo” in the assay on Myc-CaP cells [3] and “blocked PCa growth” in the assay with Myc-CaP cells [3] (listed as surfen). Moreover, the “growth of EXT1-overexpressing Myc-CaP cells in s.c. xenograft prostate cancer mouse model” value in assay [2] is reported as “efficiently inhibited; also recorded: attenuated prostate cancer growth in vivo”.
